Patent publication US20130210809A1, “NOVEL 2-AMINO-4-PYRAZOLYL-THIAZOLE DERIVATIVES AND THEIR USE AS ALLOSTERIC MODULATORS OF METABOTROPIC GLUTAMATE RECEPTORS” (priority 2010, published 2013)

How the values were obtained:
[1] = biological target: T1, recombinant human mGluR4a receptors (Homo sapiens, UniProt Q14833); test: mGluR4 assay on HEK-expressing human mGluR4 (fluorescent cell based Ca2+ mobilization assay, FLIPR); details: HEK-293 cells expressing hmGluR4; enhancement of EC25 glutamate response; mean of at least three independent experiments in duplicate; read-out: Ca^2+ Flux (mean EC50)
T1 construct: expressed in transfected cells
T1 sequence (Q14833 33-912): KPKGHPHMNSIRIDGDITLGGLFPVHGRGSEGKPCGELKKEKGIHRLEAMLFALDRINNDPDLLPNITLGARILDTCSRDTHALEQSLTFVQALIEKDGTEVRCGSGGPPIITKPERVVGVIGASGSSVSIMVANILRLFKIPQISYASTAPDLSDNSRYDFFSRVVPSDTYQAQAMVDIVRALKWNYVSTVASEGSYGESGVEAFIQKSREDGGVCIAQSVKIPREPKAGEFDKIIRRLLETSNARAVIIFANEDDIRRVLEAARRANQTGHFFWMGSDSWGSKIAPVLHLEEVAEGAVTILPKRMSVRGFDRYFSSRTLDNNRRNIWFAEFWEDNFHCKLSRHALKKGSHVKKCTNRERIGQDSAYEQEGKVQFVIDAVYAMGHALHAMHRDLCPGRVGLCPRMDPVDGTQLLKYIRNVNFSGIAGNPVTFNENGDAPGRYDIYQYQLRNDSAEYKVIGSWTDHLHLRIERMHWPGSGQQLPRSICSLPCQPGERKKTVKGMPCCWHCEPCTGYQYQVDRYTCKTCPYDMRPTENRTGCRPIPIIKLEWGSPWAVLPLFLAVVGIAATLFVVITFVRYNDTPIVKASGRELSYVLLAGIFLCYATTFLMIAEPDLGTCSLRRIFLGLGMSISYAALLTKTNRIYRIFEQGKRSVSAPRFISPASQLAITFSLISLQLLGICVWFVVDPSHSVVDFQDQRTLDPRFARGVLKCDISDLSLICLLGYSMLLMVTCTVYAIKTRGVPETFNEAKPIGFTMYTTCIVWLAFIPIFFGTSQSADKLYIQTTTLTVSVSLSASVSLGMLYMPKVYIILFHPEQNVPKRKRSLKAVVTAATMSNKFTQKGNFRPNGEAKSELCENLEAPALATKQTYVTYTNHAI
Text: mGluR4 Assay on HEK-Expressing Human mGluR4
The compounds of the present invention are positive allosteric modulators of mGluR4 receptor. Their activity was examined on recombinant human mGluR4a receptors by detecting changes in intracellular Ca^2+ concentration, using the fluorescent Ca^2+-sensitive dye Fluo4-(AM) and a Fluorometric Imaging Plate Reader (FLIPR, Molecular Devices, Sunnyvale, Calif.).
The cDNA encoding the human metabotropic glutamate receptor (hmGluR4), (accession number NM_000841.1, NCBI Nucleotide database browser), was subcloned into an expression vector containing also the Hygromycin resistance gene. In parallel, the cDNA encoding a G protein allowing redirection of the activation signal to intracellular calcium flux was subcloned into a different expression vector containing also the Puromycin resistance gene. Transfection of both these vectors into HEK293 cells with PolyFect reagent (Qiagen) according to supplier's protocol, and hygromycin and puromycin treatment allowed selection of antibiotic resistant cells which had integrated stably one or more copies of the plasmids. Positive cellular clones expressing hmGluR4 were identified in a functional assay measuring changes in calcium flux in response to glutamate or selective known mGluR4 orthosteric agonists and antagonists. HEK-293 cells expressing hmGluR4 were maintained in media containing DMEM, dialyzed Fetal Calf Serum (10%), Glutamax™ (2 mM), Penicillin (100 units/mL), Streptomycin (100 μg/mL), Geneticin (100 μg/mL) and Hygromycin-B (40 μg/mL) and Puromycin (1 μg/mL) at 37° C./5% CO2.
Human mGluR4 HEK-293 cells were plated out 24 hours prior to FLIPR^384 assay in black-walled, clear-bottomed, poly-L-ornithine-coated 384-well plates at a density of 25,000 cells/well in a glutamine/glutamate free DMEM medium containing foetal bovine serum (10%), penicillin (100 units/mL) and streptomycin (100 μg/mL) at 37° C./5% CO2.
On the day of the assay, the medium was aspirated and the cells were loaded with a 3 μM solution of Fluo4-AM (LuBioScience, Lucerne, Switzerland) in 0.03% pluronic acid. After 1 hour at 37° C./5% CO2, the non incorporated dye was removed by washing cell plate with the assay buffer and the cells were left in the dark at it for six hours before testing. All assays were performed in a pH 7.4 buffered-solution containing 20 mM HEPES, 143 mM NaCl, 6 mM KCl, 1 mM MgSO4, 1 mM CaCl2, 0.125 mM sulfapyrazone and 0.1% glucose.
After 10 s of basal fluorescence recording, various concentrations of the compounds of the invention were added to the cells. Changes in fluorescence levels were first monitored for 180 s in order to detect any agonist activity of the compounds. Then the cells were stimulated by an EC25 glutamate concentration for an additional 110 s in order to measure enhancing activities of the compounds of the invention. EC25 glutamate concentration is the concentration giving 25% of the maximal glutamate response.
The concentration-response curves of representative compounds of the present invention were generated using the Prism GraphPad software (Graph Pad Inc, San Diego, USA). The curves were fitted to a four-parameter logistic equation:
(Y=Bottom+(Top−Bottom)/(1+10̂((Log EC50-X)*Hill Slope)
allowing the determination of EC50 values.
The Table 3 below represents the mean EC50 obtained from at least three independent experiments of selected molecules performed in duplicate.

Row | melting point | EC50 [1] | Compound
1 | 247 °C | 100 to 1000 nM | COc1ccc(F)cc1-c1n[nH]cc1-c1csc(Nc2nccc(C)n2)n1 [Compound 1-5, 4-(3-(5-Fluoro-2-methoxyphenyl)-1H-pyrazol-4-yl)-N-(4-methylpyrimidin-2-yl)thiazol-2-amine]
2 | 254 to 255 °C |  | Cc1ccnc(Nc2nc(-c3c[nH]nc3C(=O)c3ccccc3)cs2)n1 [Compound 1-25, (4-(2-(4-Methylpyrimidin-2-ylamino)thiazol-4-yl)-1H-pyrazol-3-yl)(phenyl)methanone]
3 | 249.5 °C | 1000 to 10000 nM | Cc1ccnc(Nc2nc(-c3c[nH]nc3C(O)c3ccccc3)cs2)n1 (stereo not shown) [Compound 1-26, (4-(2-(4-Methylpyrimidin-2-ylamino)thiazol-4-yl)-1H-pyrazol-3-yl)(phenyl)methanol]
4 | 239 to 240 °C | 100 to 1000 nM | Cc1ccnc(Nc2nc(-c3cn[nH]c3C(=O)C3CC3)cs2)n1 [Compound 1-27, Cyclopropyl(4-(2-(4-methylpyrimidin-2-ylamino)thiazol-4-yl)-1H-pyrazol-5-yl)methanone]
5 | 239 to 241 °C | 1000 to 10000 nM | Cc1ccnc(Nc2nc(-c3c[nH]nc3-c3cccc(N(C)C)c3)cs2)n1 [Compound 1-30, 4-(3-(3-(Dimethylamino)phenyl)-1H-pyrazol-4-yl)-N-(4-methylpyrimidin-2-yl)thiazol-2-amine]
6 |  | 1000 to 10000 nM | CCc1ccnc(Nc2nc(-c3c[nH]nc3COC)cs2)n1 [Compound 1-38, N-(4-Ethylpyrimidin-2-yl)-4-(3-(methoxymethyl)-1H-pyrazol-4-yl)thiazol-2-amine]
7 |  | 100 to 1000 nM | COC(=O)N1CC=C(c2n[nH]cc2-c2csc(Nc3nccc(C)n3)n2)C1 [Compound 1-39, Methyl 3-(4-(2-(4-methylpyrimidin-2-ylamino)thiazol-4-yl)-1H-pyrazol-3-yl)-2,5-dihydro-1H-pyrrole-1-carboxylate]
8 |  | 1000 to 10000 nM | CC(=O)N1CC=C(c2n[nH]cc2-c2csc(Nc3nccc(C)n3)n2)CC1 [Compound 1-40, 1-(4-(4-(2-(4-Methylpyrimidin-2-ylamino)thiazol-4-yl)-1H-pyrazol-3-yl)-5,6-dihydropyridin-1(2H)-yl)ethanone]
9 |  | 1000 to 10000 nM | COC(=O)N1CC=C(c2n[nH]cc2-c2csc(Nc3nccc(C)n3)n2)CC1 [Compound 1-41, Methyl 4-(4-(2-(4-methylpyrimidin-2-ylamino)thiazol-4-yl)-1H-pyrazol-3-yl)-5,6-dihydropyridine-1 (2H)-carboxylate]
10 |  | 100 to 1000 nM | Cc1ccnc(Nc2nc(-c3c[nH]nc3-c3cccc(N4CCC(O)C4)c3)cs2)n1 (stereo not shown) [Compound 1-42, 1-(3-(4-(2-(4-Methylpyrimidin-2-ylamino)thiazol-4-yl)-1H-pyrazol-3-yl)phenyl)pyrrolidin-3-ol]
11 |  | < 100 nM | Cc1nc(Nc2nc(-c3cn[nH]c3)c(C#N)s2)ns1 [Compound 1-44, 2-(5-Methyl-1,2,4-thiadiazol-3-ylamino)-4-(1H-pyrazol-4-yl)thiazole-5-carbonitrile]
12 |  | 100 to 1000 nM | N#Cc1sc(Nc2nccnn2)nc1-c1cn[nH]c1 [Compound 1-45, 2-(1,2,4-Triazin-3-ylamino)-4-(1H-pyrazol-4-yl)thiazole-5-carbonitrile]
13 | 288 to 291 °C | 100 to 1000 nM | CC(=O)c1sc(Nc2nccc(C)n2)nc1-c1cn[nH]c1 [Compound 1-46, 1-(2-(4-Methylpyrimidin-2-ylamino)-4-(1H-pyrazol-4-yl)thiazol-5-yl)ethanone]
14 |  | < 100 nM | CCOc1sc(Nc2nccc(C)n2)nc1-c1cn[nH]c1 [Compound 1-47, 5-Ethoxy-N-(4-methylpyrimidin-2-yl)-4-(1H-pyrazol-4-yl)thiazol-2-amine]
